Key:
[1] = biological target: human ADAMTS-5 (Homo sapiens (Human), UniProt Q9UNA0); conditions: read-out: hADAMTS-5 potency IC50
Method: Finally, the fluorescence is read on the Envision (Perkin Elmer) after an incubation of 90 min at 37° C.

[2] = biological target: human TACE (Homo sapiens (Human), UniProt P78536); conditions: read-out: TACE potency IC50
Chain of human TACE (P78536 whole entry, looked up, change not shown): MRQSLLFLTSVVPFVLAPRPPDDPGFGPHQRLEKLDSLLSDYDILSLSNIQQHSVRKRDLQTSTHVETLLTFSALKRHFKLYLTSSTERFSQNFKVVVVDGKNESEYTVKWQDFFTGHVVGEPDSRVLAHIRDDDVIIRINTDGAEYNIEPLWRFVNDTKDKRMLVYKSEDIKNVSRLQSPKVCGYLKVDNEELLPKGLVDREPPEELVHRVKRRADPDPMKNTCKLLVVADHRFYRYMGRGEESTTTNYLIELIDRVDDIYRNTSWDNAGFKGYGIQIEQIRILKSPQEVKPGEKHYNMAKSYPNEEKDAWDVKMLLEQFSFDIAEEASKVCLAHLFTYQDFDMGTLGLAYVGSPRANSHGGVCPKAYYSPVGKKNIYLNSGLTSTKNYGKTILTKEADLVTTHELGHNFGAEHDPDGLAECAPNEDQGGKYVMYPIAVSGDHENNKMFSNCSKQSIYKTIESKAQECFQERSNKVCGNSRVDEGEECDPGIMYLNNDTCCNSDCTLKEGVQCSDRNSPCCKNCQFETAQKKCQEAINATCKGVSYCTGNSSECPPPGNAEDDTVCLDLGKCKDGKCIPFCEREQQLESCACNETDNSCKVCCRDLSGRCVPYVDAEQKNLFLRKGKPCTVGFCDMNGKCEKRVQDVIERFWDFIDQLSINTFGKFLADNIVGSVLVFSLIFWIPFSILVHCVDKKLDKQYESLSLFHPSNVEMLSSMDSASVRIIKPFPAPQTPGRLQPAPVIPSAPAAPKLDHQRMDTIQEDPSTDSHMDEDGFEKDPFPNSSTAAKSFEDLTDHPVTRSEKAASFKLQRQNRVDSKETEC

Chain of human ADAMTS-5 (Q9UNA0 262-930): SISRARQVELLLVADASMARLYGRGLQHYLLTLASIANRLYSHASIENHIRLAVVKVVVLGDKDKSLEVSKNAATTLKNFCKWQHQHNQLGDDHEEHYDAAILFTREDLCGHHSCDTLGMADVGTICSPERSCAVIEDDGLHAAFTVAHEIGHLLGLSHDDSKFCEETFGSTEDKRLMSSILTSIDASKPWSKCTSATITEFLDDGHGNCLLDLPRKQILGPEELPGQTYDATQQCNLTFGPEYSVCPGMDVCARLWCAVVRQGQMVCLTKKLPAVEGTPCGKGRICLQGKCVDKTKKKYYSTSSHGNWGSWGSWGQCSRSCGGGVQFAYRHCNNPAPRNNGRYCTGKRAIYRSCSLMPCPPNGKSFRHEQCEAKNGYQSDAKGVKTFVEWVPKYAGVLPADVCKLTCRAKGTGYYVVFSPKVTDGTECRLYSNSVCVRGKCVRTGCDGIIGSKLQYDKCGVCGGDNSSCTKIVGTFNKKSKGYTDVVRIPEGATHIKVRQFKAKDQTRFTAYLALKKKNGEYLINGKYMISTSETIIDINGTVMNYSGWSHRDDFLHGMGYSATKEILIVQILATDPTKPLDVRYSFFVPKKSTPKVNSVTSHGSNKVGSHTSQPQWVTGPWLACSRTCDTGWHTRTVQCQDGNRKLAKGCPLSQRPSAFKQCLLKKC

Row | SMILES | IC50 [1] | IC50 [2]
1 | CC(CC1(CCN)NC(=O)NC1=O)C(=O)N1CCN(c2ccc(F)c(F)c2)CC1 (stereo not drawn) [Cpd 241, 5-(2-aminoethyl)-5-[3-[4-(3,4-difluorophenyl)piperazin-1-yl]-2-methyl-3-oxo-propyl]imidazolidine-2,4-dione] | 232 nM | > 12 µM
2 | C[C@H]1CN(C(=O)C(CO)CC2(C)NC(=O)NC2=O)CCN1c1cccc(F)c1 (stereo partly drawn) [Cpd 268, 5-[3-[(3S)-4-(3-fluorophenyl)-3-methyl-piperazin-1-yl]-2-(hydroxymethyl)-3-oxo-propyl]-5-methyl-imidazolidine-2,4-dione] | 62 nM | > 4 µM
3 | C[C@H]1CN(C(=O)CCC2(C3CC3)NC(=O)NC2=O)CCN1c1cccnn1 (stereo partly drawn) [Cpd 302, 5-cyclopropyl-5-[3-(3S)-3-methyl-4-pyridazin-3-yl-piperazin-1-yl-3-oxo-propyl]imidazolidine-2,4-dione] | 776 nM | > 20 µM
4 | C[C@H]1CN(C(=O)CCC2(C3CC3)NC(=O)NC2=O)CCN1c1cccc(-c2cnccn2)c1 (stereo partly drawn) [Cpd 372, S-Cyclopropyl-5-{3-[(S)-3-methyl-4-(3-pyrazin-2-yl-phenyl)-piperazin-1-yl]-3-oxo-propyl}-imidazolidine-2,4-dione] | 2390 nM | > 20 µM
5 | C[C@@H](C[C@@]1(C2CC2)NC(=O)NC1=O)C(=O)N1CCN(c2cc(F)cc(-c3cn[nH]c3)c2)[C@@H](C)C1 [Cpd 379, 5-cyclopropyl-5-[3-[(3S)-4-[3-fluoro-5-(1H-pyrazol-4-yl)phenyl]-3-methyl-piperazin-1-yl]-2-methyl-3-oxo-propyl]imidazolidine-2,4-dione] | 18 nM | 1.49 µM
6 | CC(CC1(C2CN(C)C2)NC(=O)NC1=O)C(=O)N1CCN(c2ccc(F)c(F)c2)[C@@H](C)C1 (stereo partly drawn) [Cpd 399, 5-[3-[(3S)-4-(3,4-difluorophenyl)-3-methy-piperazin-1-yl]-2-methyl-3-oxo-propy]-5-(1-methylazetidin-3-yl)imidazolidine-2,4-dione] | 163 nM | 
7 | Cc1cc(N2CCN(C(=O)CCC3(CC(=O)NCCO)NC(=O)NC3=O)CC2)ccc1Cl (stereo not drawn) [Cpd 402, 2-[4-[3-[4-(4-chloro-3-methyl-phenyl)piperazin-1-yl]-3-oxo-propyl]-2,5-dioxo-imidazolidin-4-yl]-N-(2-hydroxyethyl)acetamide] | 732 nM | 
8 | CN(C)CCC1(CCC(=O)N2CCN(c3cccc(Cl)c3)CC2)NC(=O)NC1=O (stereo not drawn) [compound 44, 5-[3-[4-(3-chlorophenyl)piperazin-1-yl]-3-oxo-propyl]-5-(2-dimethylaminoethyl)imidazolidine-2,4-dione] |  | > 20 µM
9 | CNc1ccccc1N1CCN(C(=O)CCC2(C3CC3)NC(=O)NC2=O)CC1 (stereo not drawn) [compound 185, 5-cyclopropyl-5-[3-[4-[2-(methylamino)phenyl]piperazin-1-yl]-3-oxo-propyl]imidazolidine-2,4-dione] | > 4000 nM | 
10 | Cc1cc(Cl)c(F)cc1N1CCN(C(=O)CCC2(C)NC(=O)NC2=O)C[C@@H]1C (stereo partly drawn) [compound 202, 5-[3-[(3S)-4-(4-chloro-5-fluoro-2-methyl-phenyl)-3-methyl-piperazin-1-yl]-3-oxo-propyl]-5-methyl-imidazolidine-2,4-dione] | 724 nM | 
11 | COCCOCC1(CC(C)C(=O)N2CCN(c3cc(Cl)cc(Cl)c3)[C@@H](C)C2)NC(=O)NC1=O (stereo partly drawn) [compound 221, 5-[3-[(3S)-4-(3,5-dichlorophenyl)-3-methyl-piperazin-1-yl]-2-methyl-3-oxo-propyl]-5-(2-methoxyethoxymethyl)imidazolidine-2,4-dione] |  | 3.2 µM
12 | Cc1cc(CC(CC2(C)NC(=O)NC2=O)C(=O)N2CCN(c3cc(Cl)cc(Cl)c3)CC2)n(C)n1 (stereo not drawn) [compound 238, 5-[3-[4-(3,5-dichlorophenyl)piperazin-1-yl]-2-[(2,5-dimethylpyrazol-3-yl)methyl]-3-oxo-propyl]-5-methyl-imidazolidine-2,4-dione] | 141 nM | 3.16 µM
13 | CC(CC1(C2CN(C(=O)OC(C)(C)C)C2)NC(=O)NC1=O)C(=O)N1CCN(c2ccc(F)c(F)c2)[C@@H](C)C1 (stereo partly drawn) [compound 239, tert-butyl 3-[4-[3-[(3S)-4-(3,4-difluorophenyl)-3-methyl-piperazin-1-yl]-2-methyl-3-oxo-propyl]-2,5-dioxo-imidazolidin-4-yl]azetidine-1-carboxylate] | 46 nM | > 4 µM
14 | CC(CC1(C2CNC2)NC(=O)NC1=O)C(=O)N1CCN(c2ccc(F)c(F)c2)CC1 (stereo not drawn) [compound 240, 5-(azetidin-3-yl)-5-[3-[4-(3,4-difluorophenyl)piperazin-1-yl]-2-methyl-3-oxo-propyl]imidazolidine-2,4-dione] | 194 nM | > 20 µM
15 | CC(CC1(C)NC(=O)NC1=O)C(=O)N1C[C@@H](C)N(c2cc(Cl)cc(Cl)c2)[C@@H](C)C1 (stereo partly drawn) [compound 243, 5-[3-[(3R,5S)-4-(3,5-dichlorophenyl)-3,5-dimethyl-piperazin-1-yl]-2-methyl-3-oxo-propyl]-5-methyl-imidazolidine-2,4-dione] | > 3890 nM | > 19.5 µM
16 | CC(CC1(c2ccccn2)NC(=O)NC1=O)C(=O)N1CCN(c2ccc(F)c(Cl)c2)[C@@H](C)C1 (stereo partly drawn) [compound 245, 5-[3-[(3S)-4-(3-chloro-4-fluoro-phenyl)-3-methyl-piperazin-1-yl]-2-methyl-3-oxo-propyl]-5-(2-pyridyl)imidazolidine-2,4-dione] | 17 nM | 
17 | CC(CC1(CN2CCOCC2)NC(=O)NC1=O)C(=O)N1CCN(c2cc(Cl)cc(Cl)c2)[C@@H](C)C1 (stereo partly drawn) [compound 246, 5-[3-[(3S)-4-(3,5-dichlorophenyl)-3-methyl-piperazin-1-yl]-2-methyl-3-oxo-propyl]-5-(morpholinomethyl)imidazolidine-2,4-dione] | 114 nM | > 19.5 µM
18 | CC(=O)N1CC(C2(CC(C)C(=O)N3CCN(c4ccc(F)c(F)c4)CC3)NC(=O)NC2=O)C1 (stereo not drawn) [compound 248, 5-(1-acetylazetidin-3-yl)-5-[3-[4-(3,4-difluorophenyl)piperazin-1-yl]-2-methyl-3-oxo-propyl]imidazolidine-2,4-dione] | 49 nM | > 3.78 µM
19 | CC(CC1(CN2CCC(F)(F)C2)NC(=O)NC1=O)C(=O)N1CCN(c2cc(Cl)cc(Cl)c2)CC1 (stereo not drawn) [compound 252, 5-[3-[4-(3,5-dichlorophenyl)piperazin-1-yl]-2-methyl-3-oxo-propyl]-5-[(3,3-difluoropyrrolidin-1-yl)methyl]imidazolidine-2,4-dione] | 67 nM | 2.69 µM
20 | CC(CC1(CN2CCC(F)(F)C2)NC(=O)NC1=O)C(=O)N1CCN(c2ccc(F)c(Cl)c2)[C@@H](C)C1 (stereo partly drawn) [compound 253, 5-[3-[(3S)-4-(3-chloro-4-fluoro-phenyl)-3-methyl-piperazin-1-yl]-2-methyl-3-oxo-propyl]-5-[(3,3-difuoropyrrolidin-1-yl)methyl]imidazolidine-2,4-dione] | 35 nM | > 20 µM
21 | CC1(CC(CC#N)C(=O)N2CCN(c3cc(Cl)cc(Cl)c3)CC2)NC(=O)NC1=O (stereo not drawn) [compound 254, 4-[4-(3,5-dichlorophenyl)piperazin-1-yl]-3-[(4-methyl-2,5-dioxo-imidazolidin-4-yl)methyl]-4-oxo-butanenitrile] | 71 nM | 1 µM
22 | C[C@H]1CN(C(=O)CCC2(C3CC3)NC(=O)NC2=O)CCN1c1cc(Cl)ncn1 (stereo partly drawn) [compound 256, 5-[3-[(3S)-4-(6-chloropyrimidin-4-yl)-3-methyl-piperazin-1-yl]-3-oxo-propyl]-5-cyclopropyl-imidazolidine-2,4-dione] | 1410 nM | > 20 µM
23 | Cc1c(Cl)cc(F)cc1N1CCN(C(=O)CCC2(C)NC(=O)NC2=O)CC1 (stereo not drawn) [compound 293, 5-[3-[4-(3-chloro-5-fluoro-2-methyl-phenyl)piperazin-1-yl]-3-oxo-propyl]-5-methyl-imidazolidine-2,4-dione] | 294 nM | 
24 | C[C@H]1CN(C(=O)CCC2(C3CC3)NC(=O)NC2=O)CCN1c1ccc2ncsc2c1 (stereo partly drawn) [compound 305, 5-[3-[(3S)-4-(1,3-benzothiazol-6-yl)-3-methyl-piperazin-1-yl]-3-oxo-propyl]-5-cyclopropyl-imidazolidine-2,4-dione] |  | > 20 µM
25 | Cc1cc(N2CCN(C(=O)CC[C@@]3(C)NC(=O)NC3=O)CC2)cc(C)c1Cl [compound 401, (5R)-5-[3-[4-(4-chloro-3,5-dimethyl-phenyl)piperazin-1-yl]-3-oxo-propyl]-5-methyl-imidazolidine-2,4-dione] | 1120 nM | 
26 | C[C@@H]1CN(C(=O)CC[C@@]2(C3CC3)NC(=O)NC2=O)CCN1c1cc(F)cc(F)c1 [compound 403, (5S)-5-cyclopropyl-5-[3-[(3R)-4-(3,5-difluorophenyl)-3-methyl-piperazin-1-yl]-3-oxo-propyl]imidazolidine-2,4-dione] | 168 nM | 
27 | COCCOCC1(CC(C)C(=O)N2CCN(c3cc(Cl)cc(Cl)c3)[C@@H](C)C2)NC(=O)NC1=O (stereo partly drawn) [compound 426, 5-(3-((S)-4-(3,5-dichlorophenyl)-3-methylpiperazin-1-yl)-2-methyl-3-oxopropyl)-5-((2-methoxyethoxy)methyl)imidazolidine-2,4-dione] | 110 nM | 
28 | CC(CC1(c2ccccn2)NC(=O)NC1=O)C(=O)N1CCN(c2ccc(F)c(Cl)c2)[C@@H](C)C1 (stereo partly drawn) [compound 437, 5-(3-((S)-4-(3-chloro-4-fluorophenyl)-3-methylpiperazin-1-yl)-2-methyl-3-oxopropyl)-5-(pyridin-2-yl)imidazolidine-2,4-dione] | 17 nM | 
29 | Cc1cccc(C2(CCC(=O)N3CCN(c4ccc(Cl)c(Cl)c4)[C@@H](C)C3)NC(=O)NC2=O)n1 (stereo partly drawn) [compound 452, 5-[3-[(3S)-4-(3,4-dichlorophenyl)-3-methyl-piperazin-1-yl]-3-oxo-propyl]-5-(6-methyl-2-pyridyl)imidazolidine-2,4-dione] | 23 nM | 
30 | C[C@H]1CN(C(=O)CCC2(c3ccccn3)NC(=O)NC2=O)CCN1c1ccc(F)c(Cl)c1 (stereo partly drawn) [compound 457, 5-[3-[(3S)-4-(3-chloro-4-fluoro-phenyl)-3-methyl-piperazin-1-yl]-3-oxo-propyl]-5-(2-pyridyl)imidazolidine-2,4-dione] | 47 nM | 
